Active and inactive are the calls of the source. No cut-off for these calls is given here. Some results are limits rather than exact numbers.

In general, IC50 refers to the midpoint of a concentration-inhibition curve. By Ki is commonly meant the dissociation constant of the complex between target and ligand, obtained from inhibition or displacement. Lower therefore signals a stronger hold on the target.

Test [1] has as its system Saccharomyces cerevisiae. The experiment in a line: Inhibitory activity against baker's yeast alpha glucosidase at 200 uM.
Test [2] concerns the target Alpha-amylase (Bacillus licheniformis) (UniProt P06278). The test can be described thus: Inhibitory activity against Bacillus licheniformis alpha amylase at 200 uM.
Test [3] deals with Beta-amylase (Hordeum vulgare) (UniProt P16098). The test can be described thus: Inhibitory activity against barley beta amylase at 200 uM.
Test [4] concerns the target Beta-amylase (Hordeum vulgare, UniProt P16098). The test can be described thus: Inhibitory activity against barley beta amylase.
Test [5] has as its target Alpha-amylase (Bacillus licheniformis, UniProt P06278). The test can be described thus: Inhibitory activity against Bacillus licheniformis alpha amylase.
Test [6] is described as follows: Inhibitory activity against baker's yeast alpha glucosidase. Further details: species or system Saccharomyces cerevisiae.

Chain of Alpha-amylase (Bacillus licheniformis) (P06278 whole entry): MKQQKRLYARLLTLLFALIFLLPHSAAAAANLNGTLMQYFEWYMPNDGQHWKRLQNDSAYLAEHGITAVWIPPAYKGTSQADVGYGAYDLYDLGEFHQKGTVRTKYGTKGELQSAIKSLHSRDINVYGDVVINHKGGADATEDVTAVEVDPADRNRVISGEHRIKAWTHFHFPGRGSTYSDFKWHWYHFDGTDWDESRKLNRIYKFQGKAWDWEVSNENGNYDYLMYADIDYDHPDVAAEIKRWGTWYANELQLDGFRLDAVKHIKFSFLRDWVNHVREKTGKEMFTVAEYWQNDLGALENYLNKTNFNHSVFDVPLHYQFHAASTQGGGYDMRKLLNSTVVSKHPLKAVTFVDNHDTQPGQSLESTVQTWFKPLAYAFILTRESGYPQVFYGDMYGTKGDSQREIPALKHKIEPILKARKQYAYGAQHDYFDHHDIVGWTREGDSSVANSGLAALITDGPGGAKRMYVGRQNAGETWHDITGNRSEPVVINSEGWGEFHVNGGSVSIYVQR
Chain of Alpha-amylase (P06278 whole entry): as above
Chain of Beta-amylase (Hordeum vulgare) (P16098 whole entry): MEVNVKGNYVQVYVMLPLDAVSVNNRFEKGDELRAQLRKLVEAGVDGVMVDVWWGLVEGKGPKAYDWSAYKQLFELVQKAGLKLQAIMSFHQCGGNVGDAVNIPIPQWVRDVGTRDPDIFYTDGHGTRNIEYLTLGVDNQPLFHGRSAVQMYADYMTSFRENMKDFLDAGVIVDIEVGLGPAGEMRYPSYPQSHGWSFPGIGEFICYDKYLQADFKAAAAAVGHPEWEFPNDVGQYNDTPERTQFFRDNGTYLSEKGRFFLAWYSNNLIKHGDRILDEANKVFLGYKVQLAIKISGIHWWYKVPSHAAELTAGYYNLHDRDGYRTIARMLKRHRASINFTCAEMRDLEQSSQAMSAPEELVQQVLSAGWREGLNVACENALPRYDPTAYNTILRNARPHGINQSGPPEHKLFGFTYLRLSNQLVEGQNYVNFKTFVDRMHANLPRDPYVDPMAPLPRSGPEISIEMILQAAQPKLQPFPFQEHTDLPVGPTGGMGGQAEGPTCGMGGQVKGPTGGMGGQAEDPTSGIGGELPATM
Chain of Beta-amylase (P16098 whole entry): as above

`O=C(/C=C/c1cc(O)ccc1O)c1ccccc1`: the result in test [1], in test [2] and in test [3] was inactive.
As for `O=C(/C=C/c1ccc(O)cc1)c1ccc(O)cc1`, the result in test [1], in test [2] and in test [3] was inactive.
For `O=c1c(O)c(-c2cc(O)c(O)c(O)c2)oc2cc(O)cc(O)c12`, the result in test [1], in test [2] and in test [3] was inactive.
As to `Nc1cccc(C(=O)/C=C/c2ccc(O)c(O)c2)c1`, the half-maximal inhibitory concentration (IC50) entry in test [4] was “Not Active”; in test [5], “Not Active”; in test [6], more than 200 µM.
For `Cc1ccc(S(=O)(=O)Nc2cccc(C(=O)/C=C/c3ccc(O)c(O)c3)c2)cc1`, the half-inhibitory concentration (IC50) in test [4] (read-out: IC50) is 24.8 µM; in test [5] (read-out: IC50), 16.8 µM; in test [6], 15.6 µM. In test [6], this compound returned an inhibition constant Ki of 9.25 µM.
For `O=C(/C=C/c1cccc(O)c1O)c1ccccc1`, the result in test [1], in test [2] and in test [3] was inactive.
Turning to `Nc1ccc(C(=O)/C=C/c2ccc(O)c(O)c2)cc1`, the IC50 in test [4] (read-out: IC50) is 127 µM; in test [5], “Not Active”; in test [6] it was 62.1 µM.
With `O=C(/C=C/c1cccc(O)c1)c1ccc(O)cc1`, the result in test [1], in test [2] and in test [3] was inactive.
Take `O=C(/C=C/c1ccc(O)cc1O)c1ccccc1`: the result in test [1], in test [2] and in test [3] was inactive.
With `Nc1cccc(C(=O)/C=C/c2ccc(O)cc2)c1`, the IC50 in test [4] (read-out: IC50) is 206 µM; in test [5], “Not Active”; in test [6], more than 200 µM.
Regarding `O=c1c(O)c(-c2ccc(O)c(O)c2)oc2cc(O)cc(O)c12`, the outcome in test [1], in test [2] and in test [3] was inactive.
In the case of `O=C(/C=C/c1ccccc1O)c1ccccc1`, the outcome in test [1], in test [2] and in test [3] was inactive.
On to `Cc1ccc(S(=O)(=O)Nc2cccc(C(=O)/C=C/c3ccc(O)cc3)c2)cc1`, for which the half-maximal inhibitory concentration (IC50) in test [4] (read-out: IC50) came to 201 µM; in test [5] (read-out: IC50), 37.3 µM; in test [6] it was 12.4 µM. This compound showed an inhibitory constant (Ki) in test [6] of 7.38 µM.
In the case of `Cc1ccc(S(=O)(=O)Nc2ccc(C(=O)/C=C/c3ccc(O)cc3)cc2)cc1`, the IC50 was 247 µM in test [4] (read-out: IC50), 87.8 µM in test [5] (read-out: IC50) and 0.98 µM in test [6]. In addition, the Ki in test [6] turned out to be 0.58 µM.
On to `Oc1cc(O)c2c(c1)O[C@@H](c1ccc(O)c(O)c1)[C@H](O)C2`, for which the outcome in test [1], in test [2] and in test [3] was inactive.
Compound `C[C@H]1O[C@H](O[C@H]2[C@H](O)[C@@H](O)[C@@H](O[C@H]3[C@H](O)[C@@H](O)C(O)O[C@@H]3CO)O[C@@H]2CO)[C@H](O)[C@@H](O)[C@@H]1N[C@H]1C=C(CO)[C@@H](O)[C@H](O)[C@H]1O` (stereo not given in full) [ACARBOSE] registered an IC50 in test [6] of 60.8 µM.
For `Cc1ccc(S(=O)(=O)Nc2ccc(C(=O)/C=C/c3ccc(O)c(O)c3)cc2)cc1`, the 50% inhibitory concentration (IC50) was found to be 65 µM in test [4] (read-out: IC50), 194 µM in test [5] (read-out: IC50) and 0.4 µM in test [6]. Also, the inhibition constant (Ki) in test [6] turned out to be 0.24 µM.
As for `Nc1ccc(C(=O)/C=C/c2ccc(O)cc2)cc1`, the results for the half-maximal inhibitory concentration (IC50) result in test [4], in test [5] (read-out: IC50) and in test [6] were “Not Active”, 269 µM and 41 µM, respectively.
As for `Oc1cc(O)c2c(c1)O[C@H](c1ccc(O)c(O)c1)[C@@H](O)C2`, the result in test [1], in test [2] and in test [3] was inactive.
In the case of `O=C(/C=C/c1ccc(O)cc1)c1ccccc1`, the outcome in test [1], in test [2] and in test [3] was inactive.
Regarding `O=C(/C=C/c1ccc(O)c(O)c1)c1ccccc1`, the result in test [1], in test [2] and in test [3] was inactive.

The values are drawn from ChEMBL document CHEMBL1141244, “Sulfonamide chalcone as a new class of alpha-glucosidase inhibitors” (Bioorg Med Chem Lett, 2005).
